Publication PMC10683025, “Discovery of a Hydroxylamine-Based Brain-Penetrant EGFR Inhibitor for Metastatic Non-Small-Cell Lung Cancer” (Journal of Medicinal Chemistry, 2023)
pIC50: −log10 of the molar value. Like-named read-outs stand apart in the source and are kept apart here.

Legend:
[1] = Metabolic stability in hepatocytes; type: in vitro ADME, cynomolgus monkey; conditions: for Remaining Percentages: monkey hepatocytes
Protocol: Microsome stability was assessed in duplicate (n = 2) in the presence and absence of nicotinamide adenine dinucleotide phosphate (NADPH) with liver microsomes (0.5 mg/mL) from human (BD Gentest) and Sprague-Dawley rats (BD Gentest). Compounds were incubated in liver microsomes at 1 μM and samples (30 μL) were taken at 0.5, 15, 30, 45, and 60 min time points for analysis by LC-MS/MS. Hepatocyte stability was assessed in duplicate (n = 2) at a working cell density of 0.5 × 10^6 cells/mL with hepatocytes from human (BiolVT), Sprague-Dawley rat (BiolVT), cynomolgus monkey (RILD) or beagle dog (BiolVT). […] The in vitro half-life and intrinsic clearances were determined as previously described.[76]
In vitro half-life (in vitro t1/2) was determined from the slope value in [drawing 1] where k was determined by linear regression of the natural logarithm of the remaining percentage of the parent drug vs the incubation time curve.

[2] = Brain tissue binding by equilibrium dialysis; type: in vitro ADME, mouse
Protocol: Plasma protein binding and brain tissue binding were determined by Pharmaron, Inc. using the equilibrium dialysis method. […] Following incubation, the samples were analyzed by LC-MS/MS and the concentrations of the compounds were determined in the buffer and plasma solution chambers.

CYP3A4 = molecular target: T1, CYP3A4 (Homo sapiens, UniProt P08684); assay: CYP450 inhibition in human liver microsomes; type: in vitro ADME; conditions: midazolam
T1 construct: incubated with pooled human liver microsomes (0.5 mg/mL) (BD Gentest); tissue BD Gentest; host or cells: pooled human liver microsomes
T1 sequence (P08684 whole entry): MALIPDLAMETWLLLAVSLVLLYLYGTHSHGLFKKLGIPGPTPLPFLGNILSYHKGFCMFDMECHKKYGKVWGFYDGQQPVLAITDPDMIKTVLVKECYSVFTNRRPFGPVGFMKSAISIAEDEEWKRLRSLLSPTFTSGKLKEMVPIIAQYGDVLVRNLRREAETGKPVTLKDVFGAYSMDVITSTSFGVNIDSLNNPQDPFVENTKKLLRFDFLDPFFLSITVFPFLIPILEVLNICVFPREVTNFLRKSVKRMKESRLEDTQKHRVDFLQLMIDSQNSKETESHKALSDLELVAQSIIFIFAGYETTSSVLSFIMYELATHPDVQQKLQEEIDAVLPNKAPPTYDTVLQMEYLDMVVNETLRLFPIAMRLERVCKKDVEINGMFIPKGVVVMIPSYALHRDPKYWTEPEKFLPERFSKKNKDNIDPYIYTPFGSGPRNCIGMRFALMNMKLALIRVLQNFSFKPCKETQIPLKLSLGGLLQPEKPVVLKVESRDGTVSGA
Protocol: The activities tested were CYP1A2-mediated phenacetin O-demethylation, CYP2C19-mediated (S)-mephenyotin 4′-hydroxylation, CYP2C9-mediated diclofenac 4′-hydroxylation, CYP2D6-mediated dextromethorphan O-demethylation, and CYP3A4-mediated midazolam 1′-hydroxylation. […] The reactions were initiated by adding NADPH (1 mM final concentration) after a 5 min preincubation, and the assay was run in duplicate (n = 2). Samples were analyzed by ultra-performance liquid chromatography tandem mass spectrometry (UPLC-MS/MS).

TA100 = assay: Background bacterial cytotoxicity assay; set-up: species or system Salmonella; key to Flag: A cytotoxicity value of less than 60% is flagged and the compound is considered as toxic (denoted as Cytox.); A hyphen (-) denotes no cytotoxicity at the respective concentration
Protocol: (§1) Compounds were assessed for mutagenicity at the Eurofins Panlabs in 384-well plates using four Salmonella strains: TA98, to probe for frameshift mutation (with quercetin as control), TA100 and TA1535, to probe for base pair insertions/deletions (with streptozotocin as control), and TA1537, to probe for frameshift mutations (with aminacridine as control) as previously described.[78] Each compound was incubated at 37 °C for 96 h at four different concentrations (5, 10, 50, and 100 μM), with each concentration tested using 48 replicates, both with and without rat liver S9 metabolic activation. A concurrent bacterial cytotoxicity assay was run at 0.6, 1.2, 2.5, 5, 10, 25, 50, and 100 μM to rule out false negatives. Bacterial cytotoxicity was expressed as percent of control growth (OD650). Compounds with growth of less than 60% control were flagged and considered bacterial cytotoxic. […] Significances of the positive counts between the treatment and control were determined using a one-tailed Fisher’s exact test.

TA98 = assay: Background bacterial cytotoxicity assay; set-up: species or system Salmonella; key to Flag: A cytotoxicity value of less than 60% is flagged and the compound is considered as toxic (denoted as Cytox.); A hyphen (-) denotes no cytotoxicity at the respective concentration
Protocol: as §1

[3] = In vitro metabolite identification; type: in vitro ADME; conditions: human hepatocytes, 10 μM
AAK1 = molecular target: T2, AAK1 (Homo sapiens, UniProt Q2M2I8); assay: KINOMEScan; type: binding; conditions: AAK1, 1 µM; read-out: Percent Control
T2 construct: purchased Eurofins DiscoverX
T2 sequence (Q2M2I8 whole entry): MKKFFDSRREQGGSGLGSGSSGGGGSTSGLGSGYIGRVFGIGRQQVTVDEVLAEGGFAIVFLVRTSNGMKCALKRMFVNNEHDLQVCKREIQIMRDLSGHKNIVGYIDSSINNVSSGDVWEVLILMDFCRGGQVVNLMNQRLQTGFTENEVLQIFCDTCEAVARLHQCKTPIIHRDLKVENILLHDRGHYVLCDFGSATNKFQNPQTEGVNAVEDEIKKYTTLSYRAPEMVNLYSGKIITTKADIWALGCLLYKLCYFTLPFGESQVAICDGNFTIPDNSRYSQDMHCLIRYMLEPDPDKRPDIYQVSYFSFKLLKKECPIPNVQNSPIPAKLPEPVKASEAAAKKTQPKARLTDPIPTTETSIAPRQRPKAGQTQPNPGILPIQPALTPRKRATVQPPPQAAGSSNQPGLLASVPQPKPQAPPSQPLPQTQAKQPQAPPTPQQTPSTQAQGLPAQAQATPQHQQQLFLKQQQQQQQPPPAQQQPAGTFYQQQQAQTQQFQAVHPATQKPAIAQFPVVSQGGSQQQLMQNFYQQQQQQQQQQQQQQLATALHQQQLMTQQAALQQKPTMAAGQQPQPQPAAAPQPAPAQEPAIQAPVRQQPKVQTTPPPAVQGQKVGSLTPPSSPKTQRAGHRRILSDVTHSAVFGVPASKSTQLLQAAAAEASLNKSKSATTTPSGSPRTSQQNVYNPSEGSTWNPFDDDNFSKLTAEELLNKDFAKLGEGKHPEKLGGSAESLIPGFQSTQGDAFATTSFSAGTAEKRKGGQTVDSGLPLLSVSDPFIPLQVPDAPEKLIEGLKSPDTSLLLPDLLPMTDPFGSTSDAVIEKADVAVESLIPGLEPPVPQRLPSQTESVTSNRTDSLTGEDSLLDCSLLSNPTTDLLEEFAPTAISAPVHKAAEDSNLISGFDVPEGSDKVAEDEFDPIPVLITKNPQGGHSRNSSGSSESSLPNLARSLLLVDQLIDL
Text: (§2) Percent control was mapped onto the kinome tree using TREEspot.

[4] = molecular target: T3, ABL1(F317L)-nonphosphorylated (Homo sapiens, UniProt P00519, F317L); assay: KINOMEScan; type: binding; conditions: read-out: Percent Control
T3 construct: purchased Eurofins DiscoverX
Text: as §2

[5] = molecular target: T4, ABL1(H396P)-nonphosphorylated (Homo sapiens, UniProt P00519, H396P); assay: KINOMEScan; type: binding; conditions: read-out: Percent Control
T4 construct: purchased Eurofins DiscoverX
Text: as §2

AMPK-alpha1 = molecular target: T5, AMPK-alpha1 (Homo sapiens, UniProt Q13131); assay: KINOMEScan; type: binding; conditions: AMPK-alpha1, 1 µM; read-out: Percent Control
T5 construct: purchased Eurofins DiscoverX (KINOMEscan)
Text: as §2

ASK2 = molecular target: T6, ASK2 (Homo sapiens, UniProt O95382); assay: KINOMEScan; type: binding; conditions: ASK2, 1 µM; read-out: Percent Control
T6 construct: purchased Eurofins DiscoverX (KINOMEscan)
T6 sequence (O95382 whole entry): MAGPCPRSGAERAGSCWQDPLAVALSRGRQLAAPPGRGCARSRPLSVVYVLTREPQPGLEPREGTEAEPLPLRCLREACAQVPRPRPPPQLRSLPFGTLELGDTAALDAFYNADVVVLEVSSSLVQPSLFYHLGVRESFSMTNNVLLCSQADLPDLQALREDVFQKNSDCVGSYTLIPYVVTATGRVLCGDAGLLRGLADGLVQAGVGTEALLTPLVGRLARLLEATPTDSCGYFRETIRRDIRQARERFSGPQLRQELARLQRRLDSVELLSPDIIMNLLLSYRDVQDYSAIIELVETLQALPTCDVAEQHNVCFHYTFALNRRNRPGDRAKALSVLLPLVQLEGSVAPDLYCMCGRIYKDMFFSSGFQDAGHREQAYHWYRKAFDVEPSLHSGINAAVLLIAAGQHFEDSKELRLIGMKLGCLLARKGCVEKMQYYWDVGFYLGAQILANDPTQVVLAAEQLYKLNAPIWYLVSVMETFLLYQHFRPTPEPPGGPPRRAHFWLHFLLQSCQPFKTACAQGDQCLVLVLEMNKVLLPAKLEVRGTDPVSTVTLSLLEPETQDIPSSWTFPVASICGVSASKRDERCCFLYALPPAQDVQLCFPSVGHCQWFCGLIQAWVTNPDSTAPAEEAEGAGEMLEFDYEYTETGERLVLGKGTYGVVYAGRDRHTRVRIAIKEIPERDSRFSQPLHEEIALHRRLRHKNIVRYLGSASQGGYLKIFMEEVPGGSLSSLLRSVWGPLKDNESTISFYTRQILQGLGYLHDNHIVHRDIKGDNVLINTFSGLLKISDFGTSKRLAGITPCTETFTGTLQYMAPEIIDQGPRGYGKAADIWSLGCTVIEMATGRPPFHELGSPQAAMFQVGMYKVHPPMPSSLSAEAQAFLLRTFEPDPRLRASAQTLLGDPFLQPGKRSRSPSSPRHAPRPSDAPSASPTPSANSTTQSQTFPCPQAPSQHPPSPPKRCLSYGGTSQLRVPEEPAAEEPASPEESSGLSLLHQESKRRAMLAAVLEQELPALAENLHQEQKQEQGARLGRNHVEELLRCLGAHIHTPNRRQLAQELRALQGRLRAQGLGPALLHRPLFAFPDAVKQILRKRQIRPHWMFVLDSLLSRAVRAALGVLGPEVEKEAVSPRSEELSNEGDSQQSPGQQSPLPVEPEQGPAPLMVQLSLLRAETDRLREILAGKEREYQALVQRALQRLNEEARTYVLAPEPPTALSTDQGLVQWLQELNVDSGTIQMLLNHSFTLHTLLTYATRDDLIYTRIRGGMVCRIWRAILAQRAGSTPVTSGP

AXL = molecular target: T7, AXL (Homo sapiens, UniProt P30530); assay: KINOMEScan; type: binding; conditions: read-out: Percent Control
T7 construct: purchased Eurofins DiscoverX (KINOMEscan)
T7 sequence (P30530 26-894): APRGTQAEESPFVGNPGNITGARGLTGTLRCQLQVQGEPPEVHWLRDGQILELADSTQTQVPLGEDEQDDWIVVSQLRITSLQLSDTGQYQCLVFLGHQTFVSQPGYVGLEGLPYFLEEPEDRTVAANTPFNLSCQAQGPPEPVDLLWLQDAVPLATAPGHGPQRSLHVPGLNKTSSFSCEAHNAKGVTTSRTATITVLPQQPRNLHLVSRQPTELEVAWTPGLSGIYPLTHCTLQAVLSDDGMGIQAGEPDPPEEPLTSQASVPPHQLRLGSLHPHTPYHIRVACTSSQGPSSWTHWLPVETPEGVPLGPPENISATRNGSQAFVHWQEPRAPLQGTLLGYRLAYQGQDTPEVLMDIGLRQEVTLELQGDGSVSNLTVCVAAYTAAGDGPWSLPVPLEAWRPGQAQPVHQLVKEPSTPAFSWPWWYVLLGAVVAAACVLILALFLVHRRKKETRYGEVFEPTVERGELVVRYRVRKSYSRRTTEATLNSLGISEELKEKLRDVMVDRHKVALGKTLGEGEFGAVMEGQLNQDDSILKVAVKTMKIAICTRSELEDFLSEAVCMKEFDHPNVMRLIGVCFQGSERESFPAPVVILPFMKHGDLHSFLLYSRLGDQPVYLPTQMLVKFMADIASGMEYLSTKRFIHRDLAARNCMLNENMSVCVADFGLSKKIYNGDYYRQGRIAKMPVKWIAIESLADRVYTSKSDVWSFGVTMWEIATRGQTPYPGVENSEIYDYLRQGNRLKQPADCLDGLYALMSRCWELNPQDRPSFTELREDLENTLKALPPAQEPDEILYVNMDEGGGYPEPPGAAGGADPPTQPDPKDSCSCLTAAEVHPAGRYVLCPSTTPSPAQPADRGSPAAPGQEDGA
Text: as §2

BIKE = molecular target: T8, BIKE (Homo sapiens, UniProt Q9NSY1); assay: KINOMEScan; type: binding; conditions: read-out: Percent Control
T8 construct: purchased Eurofins DiscoverX (KINOMEscan)
Text: as §2

BMPR1A = molecular target: T9, BMPR1A (Homo sapiens, UniProt P36894); assay: KINOMEScan; type: binding; conditions: read-out: Percent Control
T9 construct: purchased Eurofins DiscoverX (KINOMEscan)
Text: as §2

WEE1 = molecular target: T10, WEE1 (Homo sapiens, UniProt P30291); assay: KINOMEScan; type: binding; conditions: WEE1, 1 µM; read-out: Percent Control
T10 construct: purchased Eurofins DiscoverX
T10 sequence (P30291 whole entry): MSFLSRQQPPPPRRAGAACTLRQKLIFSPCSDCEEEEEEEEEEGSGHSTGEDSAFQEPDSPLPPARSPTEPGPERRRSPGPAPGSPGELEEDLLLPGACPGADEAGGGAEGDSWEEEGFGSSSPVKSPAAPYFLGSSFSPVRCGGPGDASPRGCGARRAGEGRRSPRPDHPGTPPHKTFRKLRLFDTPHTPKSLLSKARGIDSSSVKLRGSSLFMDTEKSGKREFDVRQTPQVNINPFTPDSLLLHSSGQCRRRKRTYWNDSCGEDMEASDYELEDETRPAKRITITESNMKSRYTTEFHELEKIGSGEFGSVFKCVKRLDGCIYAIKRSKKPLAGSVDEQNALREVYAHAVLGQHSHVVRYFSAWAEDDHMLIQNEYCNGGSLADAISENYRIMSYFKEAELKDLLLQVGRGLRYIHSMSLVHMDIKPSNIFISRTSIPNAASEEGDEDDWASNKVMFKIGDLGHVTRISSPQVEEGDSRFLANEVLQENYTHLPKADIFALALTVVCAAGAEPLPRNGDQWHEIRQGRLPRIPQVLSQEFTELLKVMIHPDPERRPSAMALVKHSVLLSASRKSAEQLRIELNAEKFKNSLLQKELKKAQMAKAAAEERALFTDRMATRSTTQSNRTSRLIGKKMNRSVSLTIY
Text: as §2

LYN = molecular target: T11, LYN (Homo sapiens, UniProt P07948); assay: KINOMEScan; type: binding; conditions: read-out: Percent Control
T11 construct: purchased Eurofins DiscoverX (contract assay)
T11 sequence (P07948 whole entry): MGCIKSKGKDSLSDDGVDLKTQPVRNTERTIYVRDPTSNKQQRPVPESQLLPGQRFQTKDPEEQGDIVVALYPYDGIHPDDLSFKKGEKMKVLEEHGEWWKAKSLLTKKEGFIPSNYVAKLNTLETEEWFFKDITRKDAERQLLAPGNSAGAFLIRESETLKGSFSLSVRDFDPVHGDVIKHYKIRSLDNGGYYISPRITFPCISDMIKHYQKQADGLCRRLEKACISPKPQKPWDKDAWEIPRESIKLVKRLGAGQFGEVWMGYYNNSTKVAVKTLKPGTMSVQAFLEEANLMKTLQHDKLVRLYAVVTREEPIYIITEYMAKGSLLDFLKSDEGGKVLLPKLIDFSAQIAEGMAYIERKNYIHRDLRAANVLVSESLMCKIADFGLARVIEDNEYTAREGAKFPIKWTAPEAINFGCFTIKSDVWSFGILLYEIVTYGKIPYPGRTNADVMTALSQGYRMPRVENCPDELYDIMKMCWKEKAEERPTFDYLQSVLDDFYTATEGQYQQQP
Text: as §2

[6] = CD-1, mouse, mouse brain homogenate

Compound: COc1cc2ncnc(Nc3cccc(Cl)c3F)c2cc1OCCON1CCN(C)CC1 [Compound 9, N-(3-Chloro-2-fluorophenyl)-7-methoxy-6-(2-((4-methylpiperazin-1-yl)oxy)ethoxy)quinazolin-4-amine]
- hepatocyte CLint at 2 h, 1 µM ([1]; cynomolgus monkey, hepatocytes): 29 µL/min/1e6 cells
- Remaining Percentages ([1]; 15 min): 49.08%
- Remaining Percentages ([1]; 30 min): 30.35%
- Remaining Percentages ([1]; 60 min): 13.17%
- Remaining Percentages ([1]; 90 min): 4.27%
- Remaining Percentages ([1]; 120 min): BLOD
- fraction unbound at 6 h, 5 μM ([2]; CD-1, mouse, brain homogenate, read-out: fu,brain% / %Unboundbrain): 0.0405
- recovery at 6 h, 5 μM [2, 6]: 93%
- remaining at 6 h, 5 μM [2, 6]: 92.6%
- fraction unbound at 6 h, 5 μM ([2]; CD-1, mouse, mouse brain homogenate, read-out: %Unboundbrain (converted)): 0.0405
- fraction unbound at 6 h, 5 µM ([2]; mouse, brain homogenate, read-out: fu,brain% / %Unboundbrain): 0.041
- pIC50 (CYP3A4): < 4.52
- Flag (TA100; TA100-S9, 1.0E-04 M): Cytox. (A cytotoxicity value of less than 60% is flagged and the compound is considered as toxic (denoted as Cytox.))
- Mean % Control (n = 3) (TA100; TA100-S9, 1.0E-04 M): 34.0%
- Flag (TA100; TA100-S9, 1.0E-05 M): -
- Mean % Control (n = 3) (TA100; TA100-S9, 1.0E-05 M): 90.3%
- Flag (TA100; TA100-S9, 1.2E-06 M): -
- Mean % Control (n = 3) (TA100; TA100-S9, 1.2E-06 M): 91.2%
- Flag (TA100; TA100-S9, 2.5E-05 M): -
- Mean % Control (n = 3) (TA100; TA100-S9, 2.5E-05 M): 80.9%
- Flag (TA100; TA100-S9, 2.5E-06 M): -
- Mean % Control (n = 3) (TA100; TA100-S9, 2.5E-06 M): 89.5%
- Flag (TA100; TA100-S9, 5.0E-05 M): -
- Mean % Control (n = 3) (TA100; TA100-S9, 5.0E-05 M): 67.3%
- Flag (TA100; TA100-S9, 5.0E-06 M): -
- Mean % Control (n = 3) (TA100; TA100-S9, 5.0E-06 M): 93.2%
- Flag (TA100; TA100-S9, 6.0E-07 M): -
- Mean % Control (n = 3) (TA100; TA100-S9, 6.0E-07 M): 91.6%
- Flag (TA98; TA98-S9, 1.0E-04 M): -
- Mean % Control (n = 3) (TA98; TA98-S9, 1.0E-04 M): 84.2%
- Flag (TA98; TA98-S9, 1.0E-05 M): -
- Mean % Control (n = 3) (TA98; TA98-S9, 1.0E-05 M): 91.1%
- Flag (TA98; TA98-S9, 1.2E-06 M): -
- Mean % Control (n = 3) (TA98; TA98-S9, 1.2E-06 M): 92.3%
- Flag (TA98; TA98-S9, 2.5E-05 M): -
- Mean % Control (n = 3) (TA98; TA98-S9, 2.5E-05 M): 94.8%
- Flag (TA98; TA98-S9, 2.5E-06 M): -
- Mean % Control (n = 3) (TA98; TA98-S9, 2.5E-06 M): 91.7%
- Flag (TA98; TA98-S9, 5.0E-05 M): -
- Mean % Control (n = 3) (TA98; TA98-S9, 5.0E-05 M): 87.8%
- Flag (TA98; TA98-S9, 5.0E-06 M): -
- Mean % Control (n = 3) (TA98; TA98-S9, 5.0E-06 M): 95.7%
- Flag (TA98; TA98-S9, 6.0E-07 M): -
- Mean % Control (n = 3) (TA98; TA98-S9, 6.0E-07 M): 89.0%
- share of parent/metabolite after incubation of 9 [3]: 14.20%
- remaining binding at 1 µM (AAK1): 92%
- remaining binding at 1 µM [4]: 16%
- remaining binding at 1 µM [5]: 1%
- remaining binding at 1 µM (AMPK-alpha1): 100%
- remaining binding at 1 µM (ASK2): 85%
- remaining binding at 1 µM (AXL): 100%
- remaining binding at 1 µM (BIKE): 99%
- remaining binding at 1 µM (BMPR1A): 90%
- remaining binding at 1 µM (WEE1): 100%
- remaining binding at 1 µM (LYN): 7.4%
